From US7829588B2, “Modulators of the PPAR-type receptors and pharmaceutical/cosmetic applications thereof” (Galderma Research & Development, priority 2003, dated 2010)

Columns and labels:
PPARγ = target: T1, PPARγ (Homo sapiens, UniProt P37231); experiment: Cross curve PPAR transactivation test (luciferase reporter, HeLN cells), PPARγ; type: cell-based; settings: HeLN cells stably transfected with Gal-hPPARγ and ERE-βGlob-Luc-SV-Neo; Schild regression against reference agonist; read-out: PPAR γ Kd app
T1 construct: luciferase reporter plasmid ERE-βGlob-Luc-SV-Neo
T1 sequence (P37231 238-505 limits assumed): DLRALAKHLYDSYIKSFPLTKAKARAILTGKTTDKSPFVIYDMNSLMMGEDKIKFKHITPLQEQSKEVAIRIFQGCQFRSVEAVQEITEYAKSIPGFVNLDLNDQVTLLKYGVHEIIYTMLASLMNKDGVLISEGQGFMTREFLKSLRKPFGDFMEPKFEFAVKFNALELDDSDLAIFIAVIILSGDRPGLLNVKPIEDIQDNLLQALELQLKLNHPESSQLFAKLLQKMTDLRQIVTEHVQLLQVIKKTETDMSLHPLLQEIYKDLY
Protocol: (§1) The activation of receptors with an agonist (activator) in HeLN cells leads to the expression of a reporter gene, luciferase, which, in the presence of a substrate, generates light. The modulation of the receptors is measured as quantity of luminescence produced after incubating the cells in the presence of a reference agonist. The ligands will displace the agonist from its site. The measurement of the activity is performed by quantification of the light produced. This measurement makes it possible to determine the modulatory activity of the compounds according to the invention by determining the constant which is the affinity of the molecule for the receptor. […]
(§2) The various dilutions of the test products and of the reference ligand are added in an amount of 5 μl per well. […] After 5 minutes, the plates are read by the luminescence reader.
(§3) These cross curves make it possible to determine the AC50 values (concentrations at which 50% activation is observed) for the reference ligand at various concentrations of test product. These AC50 values are used to calculate the Schild regression by plotting a straight line corresponding to the Schild equation (“Quantitation in Receptor Pharmacology” Terry P. Kenakin, Receptors and Channels, 2001, 7, 371-385) which leads to Kd app values being obtained (in nM).

PPARα = target: T2, PPARα (Homo sapiens, UniProt Q07869); experiment: Cross curve PPAR transactivation test (luciferase reporter, HeLN cells), PPARα; type: cell-based; settings: HeLN cells stably transfected with Gal-hPPARα and ERE-βGlob-Luc-SV-Neo; Schild regression against reference agonist; n.a. means not active; read-out: PPAR α Kd app
T2 sequence (Q07869 200-468 limits assumed): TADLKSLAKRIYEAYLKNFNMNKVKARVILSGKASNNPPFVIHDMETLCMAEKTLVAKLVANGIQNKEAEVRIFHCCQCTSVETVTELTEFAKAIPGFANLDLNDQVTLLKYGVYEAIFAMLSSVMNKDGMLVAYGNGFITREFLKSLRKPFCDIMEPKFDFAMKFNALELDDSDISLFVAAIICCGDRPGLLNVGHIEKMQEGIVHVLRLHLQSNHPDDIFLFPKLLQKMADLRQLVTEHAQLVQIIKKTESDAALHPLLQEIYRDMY
Protocol: as §1, §2, §3

Row | SMILES | Kd (PPARγ) [nM] | Kd (PPARα) [nM]
1 | CCCCCCCOc1cc(Sc2nnc(-c3ccc(C(C)(C)C)cc3)n2C)ccc1CNc1ccc(CC(=O)OCC)cc1 [Example 1, Ethyl(4-{4-[5-(4-tert-butylphenyl)-4-methyl-4H-[1,2,4]-triazol-3-ylsulfanyl]-2-heptyloxybenzylamino}phenyl)acetate] | 60 | 
2 | CCCCCCCOc1cc(Sc2nnc(-c3ccc(C(C)(C)C)cc3)n2C)ccc1CNc1ccc(CC(=O)O)cc1 [Example 2, (4-{4-[5-(4-tert-Butylphenyl)-4-methyl-4H-[1,2,4]-triazol-3-ylsulfanyl]-2-heptyloxybenzylamino}phenyl)acetic acid] | 15 | 8000
